Results as given in PubChem BioAssay (NCI).
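Growth conditions: 96-well plates. Treatment: test compound, 48 hours, 5 concentrations. Analysis: linear interpolation between bracketing concentrations; unreached endpoints set to highest concentration. GI50 is the concentration that inhibits growth by half. At the TGI there is no net growth.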

How the values were obtained:
Experiment in all cases: NCI-60 cell line screen, 48 h
SF-539 CNS = tested on: SF-539 CNS
DU-145 prostate = tested on: DU-145 prostate
NCI-H23 lung = tested on: NCI-H23 lung
TK-10 renal = tested on: TK-10 renal
K-562 leukemia = tested on: K-562 leukemia
CAKI-1 renal = tested on: CAKI-1 renal
CCRF-CEM leukemia = tested on: CCRF-CEM leukemia
ACHN renal = tested on: ACHN renal
HL-60(TB) leukemia = tested on: HL-60(TB) leukemia
BT-549 breast = tested on: BT-549 breast

SMILES | GI50 (SF-539 CNS) [µM] | TGI (SF-539 CNS) [µM] | GI50 (DU-145 prostate) [µM] | TGI (DU-145 prostate) [µM] | GI50 (NCI-H23 lung) [µM] | TGI (NCI-H23 lung) [µM] | GI50 (TK-10 renal) [µM] | TGI (TK-10 renal) [µM] | GI50 (K-562 leukemia) [µM] | TGI (K-562 leukemia) [µM] | GI50 (CAKI-1 renal) [µM] | TGI (CAKI-1 renal) [µM] | GI50 (CCRF-CEM leukemia) [µM] | TGI (CCRF-CEM leukemia) [µM] | GI50 (ACHN renal) [µM] | TGI (ACHN renal) [µM] | GI50 (HL-60(TB) leukemia) [µM] | TGI (HL-60(TB) leukemia) [µM] | GI50 (BT-549 breast) [µM] | TGI (BT-549 breast) [µM]
O=C1c2cc3c(cc2-c2c1c1cc(F)c(F)cc1c(=O)n2CCCn1ccnc1)OCO3 | < 0.01 | 0.0457 | < 0.01 | > 100 | 0.0204 | 0.29 | 0.25 | > 100 | 0.0441 | > 100 | < 0.01 | 1.42 | < 0.01 | > 100 | < 0.01 | 0.134 | 0.0113 | 16.6 | 0.0502 | 49.5
O=C(CNc1ccccc1C(=O)O)Nn1cnc2ccc(S(=O)(=O)Nc3ccccc3C(=O)O)cc2c1=O |  | > 100 |  | > 100 |  | > 100 |  | > 100 |  | > 100 |  | > 100 |  | > 100 |  | > 100 |  | > 100 |  | > 100
C=C1c2nc3ccccc3n2C=C(c2ccc(C)cc2)N1c1ccc(OC)cc1 |  | > 100 |  | > 100 |  | > 100 |  | > 100 |  | > 100 |  | > 96.9 |  | > 100 |  | > 100 |  | 55.6 |  | > 100
O=C(O)c1c(CC(Cc2ccc3c(c2)CCC3)C(=O)O)ccc2c1CCC2 (stereo not given) |  | > 100 |  | > 100 |  | > 100 |  | > 100 |  | > 100 |  | > 100 |  | > 100 |  | > 100 |  | > 100 |  | > 100
NC(=O)[C@H](Cc1ccc(O)cc1)Nc1c(O)c2c(c(O)c1Cl)C(=O)C=CC2=O |  | 5.28 |  | > 10 |  | > 8.2 |  | > 6.51 |  | 5.37 |  | 5.18 |  | 1.04 |  | 6.61 |  | 3.19 |  | 5.26
Clc1ccc2c(NCCCCCCNc3ccnc4cc(Cl)ccc34)ccnc2c1 |  | 3.6 |  | 14.1 |  | 31.5 |  | 18.2 |  | 4.98 |  | 24.1 |  | 7.53 |  | 8.91 |  | 4.7 |  | 27.5
CC(=O)NC1C(OCc2ccccc2)OC(CO)C(O)C1OC(C)C(=O)N[C@@H](C)C(=O)N[C@H](CCC(=O)NCCNCCNc1c2ccccc2nc2cccc([N+](=O)[O-])c12)C(N)=O (stereo not given in full) |  | 0.991 |  | 0.231 |  | 0.0902 |  | 3.54 |  | > 100 |  | 0.565 |  | > 100 |  | 0.512 |  | > 80.5 |  | 0.221
CCOP(=O)(/C=C/n1cc(C)c(=O)[nH]c1=O)OCC |  | > 100 |  | > 100 |  | > 100 |  | > 100 |  | > 100 |  | > 100 |  | > 100 |  | > 100 |  | > 100 |  | > 100
CC(C)(CO[C@H]1C[C@H]2CC[C@@]1(C)C2(C)C)[N+](=O)[O-] |  | 32.1 |  | 49.2 |  | 65.6 |  | 34 |  | 35 |  | 60.3 |  | > 100 |  | > 100 |  | 22.5 |  | 45.5
